Reference: patent US6465432B1, “Isolated antioxidant peptides form casein and methods for preparing, isolating, and identifying antioxidant peptides” (Kraft Food Holdings, Inc., priority 2000, dated 2002)
No end group written: not given here.

Tests used:
Type in all cases: biochemical
[1] = ABTS total antioxidative activity assay (ABTS, metmyoglobin, H2O2; absorbance at 734 nm)
Method: (§1) Phase I fractions of the protein hydrolysates generated with various proteases in Example 1 were analyzed for their ability to prevent accumulation of free radicals derived from 2,2′-azino-bis(3-ethylbenzthiazoline-6-sulfonic acid) (ABTS). Both total antioxidative activity and total reducing power of protein hydrolysate using ABTS and preformed ABTS radical, respectively, were used. These two model systems allowed mechanistic information of antioxidative activity of protein hydrolysates to be obtained. Furthermore, the analysis provided specific data related to whether the protein hydrolysates have the capacity of scavenging radicals in an oxidation system.
Total antioxidant assays using ABTS were performed according to Cox et al., “Biological assays for cellular transformation,” Methods in Enzymology 238:277 (1994); and Plumb et al., “Are Whole Extracts and Purified Glucosinolates from Cruciferous Vegetables Antioxidants?,” Free Rad. Res. 25:75 (1996). The assay was performed in a total volume of 1.2 ml. Twenty-five microliters of sample (Phase I hydrolysate fractions as described in Example 1 or Trolox standard (2.5 mM) (Aldrich, Milwaukee, Wis.) were combined with 100 μl of ABTS solution (2.5 mM ABTS (Sigma, St. Louis, Mo.) in PBS), 180 μl of MetMb solution (50 μM Metmyoglobin made from mixing 1:1 v/v of 100 µM myoglobin (Sigma, St. Louis, Mo.) and 100 μM Metmyoglobin (Sigma, St. Louis, Mo.); and 100 μM potassium ferricyanide (Aldrich, Milwaukee, Wis.) in PBS), and 775 μl PBS. One-hundred and 20 microliters of 10 mM H2O2 were then added. The mixture was agitated and absorbance was read at 734 nm over a period of 10-15 min.

[2] = Total reducing power assay using ABTS radical; conditions: for antioxidative activity in the ABTS radical assay: HPLC-isolated fractions of Phase I, concentrations not adjusted after HPLC; for reducing power in terms of scavenging pre-formed ABTS radical: synthesized peptide 0.0832 mM, Trolox 0.0208 mM, n=5
Method: as §1
Total reducing power assays using ABTS radical were performed according to the methods of Pellegrini et al., “Screening of Dietary Carotenoids and Carotenoid-Rich Fruit Extracts for Antioxidant Activities Applying 2,2 ′-Azinobis(3-ethylenebenzothiazoline-6-sulfonic acid Radical Cation Decolorization Assay,” Methods in Enzymology 299:379 (1999). This assay measures antioxidant capability as reducing power in terms of scavenging pre-formed ABTS radical. Equal volumes of lOmM PBS and sample (Phase I hydrolysate fractions as described in Example 1) were combined and 2.5 times the total volume (i.e., PBS and sample combined) of a working solution of ABTS radical was added. The mixture was agitated and absorbance at 734 nm was measured after 10 minutes of incubation at […]. Acetone or PBS was used as a blank where appropriate. The working solution of ABTS radical was prepared by adding 1 volume of a ABTS radical stock solution to 80 volumes of 10 mM PBS (pH 7.0) and adding, if necessary, PBS or ABTS stock solution to adjust the absorbance to about 0.83 at 734 nm. The ABTS radical stock solution contained 2.5 mM K2S2O8 and 6.9 mM ABTS.

[3] = Hydroxyl radical (Fenton) assay; conditions: synthesized peptide 0.2083 mM, Trolox 0.0521 mM; n=5; FIG. 22
Method: An analysis was performed to evaluate the ability of the peptide samples (Phase I and II hydrolysate fractions as described in Example 1) to quench the hydroxyl radical. The hydroxyl radical is an exceptionally active agent that reacts nonselectively with all organic constituents of food. Consequently, it can directly initiate lipid oxidation in food systems. The capacity to quench hydroxyl radicals, therefore, should theoretically be a very important characteristics for food antioxidants.
The hydroxyl radical (Fenton) assay was performed according to the methods of Lee, B. J., et al., “Antioxidant effects of L-carnosine on liposomes and beef homogenates,” J. Food Sci. 62:931 (1997). For this assay, 945 μl buffer (0.1 M phosphate buffer, pH 7.4), 60 μl EDTA-FeCl3 solution (92 mM EDTA, 26 mM FeCI3 in 0.1 M phosphate buffer pH 7.4), 25 μl sample (Phase I and II hydrolysate fractions as described in Example 1 or Trolox standard (2.5 mM)), and 120 μl of 1 mM H2O2 were combined. To this solution, 50 μl of a deoxyribose-ascorbic acid solution (67 mM deoxyribose, 4.8 mM ascorbic acid, in 01 M phosphate buffer pH 7.4) was added, and the solution was mixed and incubateded at 37° C. for 1 hr. […] Absorbance of the solution is then read at 532 nm after cooling to room temperature. […]

[4] = synthesized peptide 0.0832 mM, Trolox 0.0208 mM, n=5

Row | Molecule | total antioxidative activity [1, 4] | antioxidative activity in the ABTS radical assay [2] | reducing power in terms of scavenging pre-formed ABTS radical [2] | also measured
1 | Cc1c(C)c2c(c(C)c1O)CCC(C)(C(=O)O)O2 (centres unmarked) [Trolox, reference compound] | – | – | – | total antioxidative activity ([1]; Phase I of milk protein hydrolysates, FIG. 2, PBS negative control, Trolox positive control): typical delay of initiation or lag phase of the oxidation system; time until after which oxidation was virtually totally suppressed ([1]; Trolox 0.0208 mM): > 2 h
2 | Gln-Phe-Tyr [cyclic QFY] (not fully specified (bridges); printed as Gln-Phe-Tyr [cyclic QFY]; also: cyclic, kind not given here) [cyclic tripeptide, fragment of alpha S1-casein (amino acid residues 167-169) from bovine milk] | slightly stronger antioxidative activity | strong antioxidative activity | significantly (p<0.05) scavenged pre-formed ABTS radical | capacity to quench hydroxyl radicals [3]: slightly stronger capacity to quench hydroxyl radicals
3 | AYFYPE [fragment of alpha S1-casein (amino acid residue 158˜163) from bovine milk] | significant (p<0.05) when compared to PBS controls | strong antioxidative activity | strong antioxidative activity | time within which oxidation reached maximal levels ([1]; synthesized peptide 0.0832 mM): ≤ 1.5 h
4 | Gln-Phe-Tyr [linear QFY] | have antioxidative activity | – | significantly (p<0.05) scavenged pre-formed ABTS radical | capacity to quench hydroxyl radicals [3]: possess the capacity to quench hydroxyl radicals
5 | RYLGYLE (Bovine) [Arg-Tyr-Leu-Gly-Tyr-Leu-Glu, fragment of alpha S1-casein (amino acid residues 105˜111) from bovine milk] | – | strong antioxidative activity | statistically significant when compared to PBS controls | –
6 | YLGYLE [fragment of alpha S1-casein (amino acid residues 106˜111) from bovine milk] | – | strong antioxidative activity | – | –
7 | LAYFYPE (Bovine) [Leu-Ala-Tyr-Phe-Tyr-Pro-Glu] | – | strong antioxidative activity | – | –
